According to US9718821B2, “Pyridopyrimidinone inhibitors of kinases” (AbbVie Inc., priority 2012, dated 2017):

What follows are compounds tested against T1, GST-tagged-Wee1 kinase (Homo sapiens, UniProt P30291) (assay: Wee1 time-resolved fluorescence equilibrium binding assay (displacement of Oregon Green-labeled ATP-competitive kinase probe)). Conditions: enzyme binding data; GST-tagged-Wee1 kinase 2 nM, fluorescent probe 300 nM, inhibitor 0.003 to 10 micromolar, 1 hour incubation; read-out: Wee-1 binding (Ki nM).
T1 construct: purchased Carnabio 05-177
T1 sequence (P30291 whole entry): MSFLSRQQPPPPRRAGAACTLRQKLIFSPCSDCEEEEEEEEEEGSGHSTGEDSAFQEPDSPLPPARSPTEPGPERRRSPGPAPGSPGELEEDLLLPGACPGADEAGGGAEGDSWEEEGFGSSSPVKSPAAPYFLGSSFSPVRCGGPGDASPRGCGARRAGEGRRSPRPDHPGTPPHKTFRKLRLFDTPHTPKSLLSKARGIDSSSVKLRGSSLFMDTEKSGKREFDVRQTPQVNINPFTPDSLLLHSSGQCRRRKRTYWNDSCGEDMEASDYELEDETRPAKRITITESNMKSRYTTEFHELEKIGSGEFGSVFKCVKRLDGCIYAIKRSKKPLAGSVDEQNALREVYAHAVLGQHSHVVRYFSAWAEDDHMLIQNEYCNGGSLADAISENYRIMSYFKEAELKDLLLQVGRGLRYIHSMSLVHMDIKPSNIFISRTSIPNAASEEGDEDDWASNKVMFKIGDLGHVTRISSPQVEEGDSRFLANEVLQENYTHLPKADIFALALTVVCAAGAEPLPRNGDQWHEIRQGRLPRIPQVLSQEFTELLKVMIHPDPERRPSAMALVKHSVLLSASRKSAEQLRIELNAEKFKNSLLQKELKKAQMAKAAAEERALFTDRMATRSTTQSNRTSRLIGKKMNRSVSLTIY
Method: Wee1 kinase was assayed using a time-resolved fluorescence equilibrium binding assay monitoring displacement of a rapidly reversible Oregon Green-labeled ATP-competitive kinase probe (N-(2-(2-(2-(4-(4-(5-chloro-4-(2-(1-hydroxycyclobutyl)thiazol-5-yl)-1H-pyrrolo[2,3-b]pyridin-2-yl)phenyl)piperazin-1-yl)ethoxy)ethoxy)ethyl)-2′,7′-difluoro-3′,6′-dihydroxy-3-oxo-3H-spiro[isobenzofuran-1,9′-xanthene]-5-carboxamide) by competitive Wee1 inhibitors.
Table 1 depicts enzyme binding data (Ki)for exemplary compounds.

| Compound | Ki [nM] |
| --- | --- |
| Cc1cn(-c2c(F)cccc2Cl)c(=O)c2cnc(Nc3ccc4c(c3)CN(C)CC43CC3)nc12 [Example 67, 6-(2-chloro-6-fluorophenyl)-8-methyl-2-[(2′-methyl-2′,3′-dihydro-1′H-spiro[cyclopropane-1,4′-isoquinolin]-7′-yl)amino]pyrido[4,3-d]pyrimidin-5(6H)-one] | 0.8 |
| CN1Cc2cc(Nc3ncc4c(=O)n(-c5c(Cl)cccc5Cl)cc(C(F)F)c4n3)ccc2C2(CC2)C1 [Example 94, 6-(2,6-dichlorophenyl)-8-(difluoromethyl)-2-[(2′-methyl-2′,3′-dihydro-1′H-spiro[cyclopropane-1,4′-isoquinolin]-7′-yl)amino]pyrido[4,3-d]pyrimidin-5(6H)-one] | 0.568 |
| CN1Cc2cc(Nc3ncc4c(=O)n(-c5c(Cl)cccc5Cl)cc(CF)c4n3)ccc2C2(CC2)C1 [Example 113, 6-(2,6-dichlorophenyl)-8-(fluoromethyl)-2-[(2′-methyl-2′,3′-dihydro-1′H-spiro[cyclopropane-1,4′-isoquinolin]-7′-yl)amino]pyrido[4,3-d]pyrimidin-5 (6H)-one] | 0.4 |
| Cc1cn(-c2c(F)cccc2Cl)c(=O)c2cnc(Nc3ccc4c(c3)CNCC43CC3)nc12 [Example 74, 6-(2-chloro-6-fluorophenyl)-2-(2′,3′-dihydro-1′H-spiro[cyclopropane-1,4′-isoquinolin]-7′-ylamino)-8-methylpyrido[4,3-d]pyrimidin-5(6H)-one] | 0.6 |
| Cc1cccc(C)c1-n1cc(C)c2nc(Nc3ccc4c(c3)CNCC4)ncc2c1=O [Example 126, 6-(2,6-dimethylphenyl)-8-methyl-2-(1,2,3,4-tetrahydroisoquinolin-7-ylamino)pyrido[4,3-d]pyrimidin-5(6H)-one] | 0.4 |
| Cc1cn(-c2c(Cl)cccc2Cl)c(=O)c2nnc(Nc3ccc4c(c3)CNCC4)nc12 [Example 134, 7-(2,6-dichlorophenyl)-5-methyl-3-(1,2,3,4-tetrahydroisoquinolin-7-ylamino)pyrido[4,3-e][1,2,4]triazin-8(7H)-one] | 6.5 |
| Cc1cccc(F)c1-n1cc(C)c2nc(Nc3ccc4c(c3)CNCC4)ncc2c1=O [Example 103, 6-(2-fluoro-6-methylphenyl)-8-methyl-2-(1,2,3,4-tetrahydroisoquinolin-7-ylamino)pyrido[4,3-d]pyrimidin-5(6H)-one] | 0.9 |
| Cc1cccc(C)c1-n1cc(C)c2nc(Nc3ccc4c(c3)CN(C)CC43CC3)ncc2c1=O [Example 88, 6-(2,6-dimethylphenyl)-8-methyl-2-[(2′-methyl-2′,3′-dihydro-1′H-spiro[cyclopropane-1,4′-isoquinolin]-7′-yl)amino]pyrido[4,3-d]pyrimidin-5(6H)-one] | 0.544 |
| Cc1cn(-c2cccc3ccccc23)c(=O)c2cnc(Nc3ccc4c(c3)CNCC4)nc12 [Example 100, 8-methyl-6-(naphthalen-1-yl)-2-(1,2,3,4-tetrahydroisoquinolin-7-ylamino)pyrido[4,3-d]pyrimidin-5(6H)-one] | 4.3 |
| CNc1ncc2c(=O)n(-c3c(Cl)cccc3Cl)cc(C)c2n1 [Example 65, 6-(2,6-dichlorophenyl)-8-methyl-2-(methylamino)pyrido[4,3-d]pyrimidin-5(6H)-one] | 127 |
| CN(C)C1CCN(c2ccc(Nc3ncc4c(=O)n(-c5c(Cl)cccc5Cl)cc(CO)c4n3)cc2)CC1 [Example 55, 6-(2,6-dichlorophenyl)-2-({4-[4-(dimethylamino)piperidin-1-yl]phenyl}amino)-8-(hydroxymethyl)pyrido[4,3-d]pyrimidin-5(6H)-one] | 0.6 |
| Cc1cccc(C)c1-n1cc(C)c2nc(Nc3ccc(N4CCN(CCCN(C)C)CC4)cc3)ncc2c1=O [Example 139, 2-[(4-{4-[3-(dimethylamino)propyl]piperazin-1-yl}phenyl)amino]-6-(2,6-dimethylphenyl)-8-methylpyrido[4,3-d]pyrimidin-5(6H)-one] | 2.1 |
| Cc1cn(-c2c(F)cccc2Cl)c(=O)c2cnc(Nc3ccc4c(c3)CC(N(C)C)C4)nc12 (stereo not shown) [Example 68, 6-(2-chloro-6-fluorophenyl)-2-{[2-(dimethylamino)-2,3-dihydro-1H-inden-5-yl]amino}-8-methylpyrido[4,3-d]pyrimidin-5(6H)-one] | 0.9 |
| Cc1cn(-c2c(F)cccc2Cl)c(=O)c2cnc(Nc3ccc(N4CCC(N(C)C)CC4)cc3)nc12 [Example 69, 6-(2-chloro-6-fluorophenyl)-2-({4-[4-(dimethylamino)piperidin-1-yl]phenyl}amino)-8-methylpyrido[4,3-d]pyrimidin-5(6H)-one] | 2.4 |
| Cc1cn(-c2ccccc2-c2cnco2)c(=O)c2cnc(Nc3ccc(N4CCC(N(C)C)CC4)cc3)nc12 [Example 106, 2-({4-[4-(dimethylamino)piperidin-1-yl]phenyl}amino)-8-methyl-6-[2-(1,3-oxazol-5-yl)phenyl]pyrido[4,3-d]pyrimidin-5(6H)-one] | 115 |
| Cc1cn(-c2c(Cl)cccc2Cl)c(=O)c2cnc(Nc3ccc4c(c3)CNCC4)nc12 [Example 80, 6-(2,6-dichlorophenyl)-8-methyl-2-(1,2,3,4-tetrahydroisoquinolin-7-ylamino)pyrido[4,3-d]pyrimidin-5(6H)-one] | 0.5 |
| 6-(2,6-dichlorophenyl)-8-methyl-2-(1,2,3,4-tetrahydroisoquinolin-6-ylamino)pyrido[4,3-d]pyrimidin-5(6H)-one [Example 76] | 0.5 |
| COC(=O)c1ccc(Cl)c(-n2cc(C)c3nc(Nc4ccc(N5CCC(N(C)C)CC5)cc4)ncc3c2=O)c1 [Example 108, methyl 4-chloro-3-[2-({4-[4-(dimethylamino)piperidin-1-yl]phenyl}amino)-8-methyl-5-oxopyrido[4,3-d]pyrimidin-6(5H)-yl]benzoate] | 242 |
| Cc1cn(-c2c(F)cccc2Cl)c(=O)c2cnc(Nc3ccc(N4CCN(C)CC4)cc3)nc12 [Example 66, 6-(2-chloro-6-fluorophenyl)-8-methyl-2-{[4-(4-methylpiperazin-1-yl)phenyl]amino}pyrido[4,3-d]pyrimidin-5(6H)-one] | 0.9 |

Other lines, results leading:

| Ki [nM] | Compound |
| --- | --- |
| 0.4 | O=c1c2cnc(Nc3ccc4c(c3)CCNC4)nc2c(CF)cn1-c1c(Cl)cccc1Cl [Example 110, 6-(2,6-dichlorophenyl)-8-(fluoromethyl)-2-(1,2,3,4-tetrahydroisoquinolin-6-ylamino)pyrido[4,3-d]pyrimidin-5(6H)-one] |
| 0.1 | CN1CCC(c2ccc(Nc3ncc4c(=O)n(-c5c(Cl)cccc5Cl)cc(C(F)F)c4n3)cc2)CC1 [Example 82, 6-(2,6-dichlorophenyl)-8-(difluoromethyl)-2-{[4-(1-methylpiperidin-4-yl)phenyl]amino}pyrido[4,3-d]pyrimidin-5 (6H)-one] |
| 0.3 | Cc1cn(-c2c(Cl)cccc2Cl)c(=O)c2cnc(Nc3ccc(NCCN(C)C)cc3)nc12 [Example 130, 6-(2,6-dichlorophenyl)-2-[(4-{[2-(dimethylamino)ethyl]amino}phenyl)amino]-8-methylpyrido[4,3-d]pyrimidin-5(6H)-one] |
| 0.2 | CN(C)C1CCN(c2ccc(Nc3ncc4c(=O)n(-c5c(Cl)cccc5Cl)cc(CF)c4n3)cc2)CC1 [Example 111, 6-(2,6-dichlorophenyl)-2-({4-[4-(dimethylamino)piperidin-1-yl]phenyl}amino)-8-(fluoromethyl)pyrido[4,3-d]pyrimidin-5(6H)-one] |
| 0.3 | Cc1cn(-c2c(Cl)cccc2Cl)c(=O)c2cnc(Nc3ccc(NC4CCN(C)C4)cc3)nc12 (stereo not shown) [Example 125, 6-(2,6-dichlorophenyl)-8-methyl-2-({4[(1-methylpyrrolidin-3-yl)amino]phenyl}amino)pyrido[4,3-d]pyrimidin-5(6H)-one] |
| 0.38 | O=c1c2cnc(Nc3ccc4c(c3)CC(N3CCCC3)C4)nc2c(C(F)F)cn1-c1c(Cl)cccc1Cl (stereo not shown) [Example 95, 6-(2,6-dichlorophenyl)-8-(difluoromethyl)-2-{[2-(pyrrolidin-1-yl)-2,3-dihydro-1H-inden-5-yl]amino}pyrido[4,3-d]pyrimidin-5(6H)-one] |
| 0.2 | COC(=O)c1cc(Nc2ncc3c(=O)n(-c4c(Cl)cccc4Cl)cc(C)c3n2)ccc1N1CCN(C)CC1 [Example 129, methyl 5-{[6-(2,6-dichlorophenyl)-8-methyl-5-oxo-5,6-dihydropyrido[4,3-d]pyrimidin-2-yl]amino}-2-(4-methylpiperazin-1-yl)benzoate] |
| 0.2 | CN(C)C1Cc2ccc(Nc3ncc4c(=O)n(-c5c(Cl)cccc5Cl)cc(C(F)F)c4n3)cc2C1 (stereo not shown) [Example 83, 6-(2,6-dichlorophenyl)-8-(difluoromethyl)-2-{[2-(dimethylamino)-2,3-dihydro-1H-inden-5-yl]amino}pyrido[4,3-d]pyrimidin-5(6H)-one] |
| 0.3 | CNC(=O)CS(=O)(=O)c1ccc(Nc2ncc3c(=O)n(-c4c(Cl)cccc4Cl)cc(C)c3n2)cc1 [Example 120, 2-[(4-{[6-(2,6-dichlorophenyl)-8-methyl-5-oxo-5,6-dihydropyrido[4,3-d]pyrimidin-2-yl]amino}phenyl)sulfonyl]-N-methylacetamide] |
| 0.22 | Cc1cccc(Cl)c1-n1cc(C)c2nc(Nc3ccc(N4CCC(N(C)C)CC4)cc3)ncc2c1=O [Example 91, 6-(2-chloro-6-methylphenyl)-2-({4-[4-(dimethylamino)piperidin-1-yl]phenyl}amino)-8-methylpyrido[4,3-d]pyrimidin-5(6H)-one] |
| 0.3 | Cc1cccc(Cl)c1-n1cc(C)c2nc(Nc3ccc4c(c3)CNCC4)ncc2c1=O [Example 127, 6-(2-chloro-6-methylphenyl)-8-methyl-2-(1,2,3,4-tetrahydroisoquinolin-7-ylamino)pyrido[4,3-d]pyrimidin-5(6H)-one] |
| 0.358 | O=c1c2cnc(Nc3ccc4c(c3)CCNC4)nc2c(C(F)F)cn1-c1c(Cl)cccc1Cl [Example 93, 6-(2,6-dichlorophenyl)-8-(difluoromethyl)-2-(1,2,3,4-tetrahydroisoquinolin-6-ylamino)pyrido[4,3-d]pyrimidin-5(6H)-one] |
